{"source": "patent US9333264B2", "about": "“Biocompatible polymeric nanoparticles degrade and release cargo in response to biologically relevant levels of hydrogen peroxide” (The Regents of the University of California, priority 2013, dated 2016)", "key": {"[1]": {"conditions": "cited from earlier work"}, "[2]": {"assay": "Effect of H2O2 on the fluorescence of Nile red", "format": "physicochemical", "conditions": "72 h incubation with 1 mM hydrogen peroxide", "description": "The fluorescence of the dye was quenched in aqueous environments, enabling use as a model compound to indicate small molecule release from the hydrophobic nanoparticle interior. Prior to the evaluation of controlled release from our materials, the stability of Nile Red fluorescence in hydrogen peroxide was tested to ensure that the fluorescence quenching observed is not a result of Nile Red exposure to hydrogen peroxide.\nNile red solutions of three different concentrations in acetone were prepared (10, 40, 160 ng/mL). Polymer 1 was dissolved in the Nile red solutions (polymer concentration in all Nile red solutions were constant at 125 μg/mL). Hydrogen peroxide was added to these solutions (concentration in Nile red solutions was constant at 1 mM). Changes in Nile red fluorescence were monitored over a 72 h period using the same instrument settings as reported previously. These experiments were run in duplicate."}, "dMPRO cells": {"system": "dMPRO cells", "assay": "Extracellular hydrogen peroxide produced by neutrophils", "format": "cell-based, mouse", "conditions": "1.6×10^6 dMPRO cells, after 6 h of PMA treatment", "description": "Activated neutrophils generate high ROS. Extracellular hydrogen peroxide produced by neutrophils (differentiated mouse promyleocytes or dMPRO cells) with and without PMA (phorbol 12 myristate 13 acetate) stimulation was measured.\nAfter 6 h of PMA treatment, 1.6×10^6 dMPRO cells produced 6.5 μM H2O2, while untreated cells produced 4.5 μM H2O2. These extracellular levels of H2O2 were much lower than the levels previously seen for Polymer 2, however the concentration of H2O2 inside neutrophil granules appear to be much higher. Fluorescein diacetate (FDA), a non-fluorescent molecule which is cleaved to fluorescein (Ex490/Em520) by cellular esterases, was chosen for the release assay."}, "Raw264.7 macrophages": {"system": "Raw264.7 macrophages", "assay": "ApoTox-Glo assay of viability, cytotoxicity and apoptosis", "conditions": "staurosporine 5 μM for 5 h; Triton X-100 0.1% for 15 min", "description": "In addition, this assay also measures caspase 3/7 activity as a readout for apoptosis (see, FIGS. 7A-7D). […] Staurosporine and 0.1% Triton-X 100 were used as positive controls for induction of apoptosis and cell death, respectively.\nRaw264.7 cells were seeded on a 96-well plate at a density of 15000 cells per well. […] The particles were incubated for 5, 24 and 48 h.\nApoptosis (positive control) was induced by addition of staurosporine (5 μM final concentration), followed by incubation for at 37° C. for 5 h. Cytotoxicity (positive control) was induced by addition of triton X-100 (0.1% final concentration), followed by incubation at 37° C. for 15 min. Viability, cytotoxicity and apoptosis were measured using ApoTox-Glo™ assay (Promega) as per manufacturer's protocol. Datasets for each concentration and controls were collected in quadruplicates."}}, "data": [{"compound": "CCN(CC)c1ccc2nc3c4ccccc4c(=O)cc-3oc2c1", "note": "[Nile red]", "values": [{"measurement": "solubility in aqueous media", "setting": "[1]", "result": "< 1", "unit": "µg/mL"}, {"measurement": "change of Nile Red fluorescence", "setting": "[2]", "result": "did not change significantly"}]}, {"compound": "CCCCCCCCCCCCCC(=O)O[C@@H]1[C@@H](C)[C@@]2(O)[C@@H](C=C(CO)C[C@]3(O)C(=O)C(C)=C[C@@H]23)[C@@H]2C(C)(C)[C@]12OC(C)=O", "note": "[PMA, phorbol 12 myristate 13 acetate]", "values": [{"measurement": "extracellular H2O2 produced", "setting": "dMPRO cells", "result": 6.5, "unit": "µM"}]}, {"compound": "CN[C@@H]1C[C@H]2O[C@@](C)([C@@H]1OC)n1c3ccccc3c3c4c(c5c6ccccc6n2c5c31)C(=O)NC4", "note": "[staurosporine]", "values": [{"measurement": "apoptosis and cell viability, positive controls", "setting": "Raw264.7 macrophages", "result": "apoptosis and loss of cell viability was observed"}]}, {"compound": "Triton X-100", "values": [{"measurement": "apoptosis and cell viability, positive controls", "setting": "Raw264.7 macrophages", "result": "apoptosis and loss of cell viability was observed"}]}]}
